From patent US11759462B2, “Spirocyclic compounds as tryptophan hydroxylase inhibitors” (priority 2013, dated 2023) come the findings set out here.

SMILES strings stand for the structures. Where two headings read alike, the source gives them in different places.

Assay [1] has as its target T1, Recombinant human TPH1 (MBP tagged) (Homo sapiens, UniProt P17752).
T1 construct: cloning full length human TPH1 cDNA in to a bacterial pMAL-c5E expression vector; made in house; host or cells: E. coli BL21 (DE3)
T1 sequence (P17752 1-444): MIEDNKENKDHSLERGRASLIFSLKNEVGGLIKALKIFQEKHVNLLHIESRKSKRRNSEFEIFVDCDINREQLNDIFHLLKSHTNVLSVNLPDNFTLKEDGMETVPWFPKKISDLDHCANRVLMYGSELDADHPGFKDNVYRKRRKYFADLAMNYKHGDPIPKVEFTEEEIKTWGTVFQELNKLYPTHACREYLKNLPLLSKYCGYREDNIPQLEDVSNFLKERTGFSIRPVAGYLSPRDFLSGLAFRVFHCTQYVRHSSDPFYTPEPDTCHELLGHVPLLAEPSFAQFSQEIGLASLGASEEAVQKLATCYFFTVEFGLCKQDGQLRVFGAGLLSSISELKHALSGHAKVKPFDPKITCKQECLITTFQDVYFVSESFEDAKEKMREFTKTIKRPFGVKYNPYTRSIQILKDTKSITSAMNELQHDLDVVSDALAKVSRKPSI
Put plainly: TPH1 in vitro inhibition assay (kinetic fluorescence). The assay is classed as biochemical. Put shortly:
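Final mix: 15 nM MBP-TPH1, 30 μM Trp, 36 μM 6-methyltetrahydropterin, 25 μM ferrous ammonium sulfate, 50 mM MES pH 7.1, 1% DMSO, room temperature.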

Assay [2] has as its system jejunal mucosal 5-HT in mice (C57 BL6). Put plainly: Intestinal 5-HT depletion assay (Example B, single 150 mg/kg oral dose). It counts as in vivo, mouse. Particulars: one day after oral administration of a single 150 mg/kg dose, P-value class (ANOVA). The protocol: The efficacy of the TPH1 inhibitors of the invention was assessed for the ability to decrease intestinal serotonin concentration in mice. Mice (C57 BL6) were administered a single 150 mg/kg dose of test article by oral gavage. Each animal was euthanized by exsanguination under isoflurane anesthesia. Jejunal intestinal mucosa was isolated and homogenized in 300 μL of a buffer containing 0.3M trichloroacetic acid, 0.1M sodium acetate, 10 mM EDTA, 20 mM sodium bisulfate and 50 mM ascorbic acid. Following centrifugation the 5-HT levels in the supernatants were measured by HPLC. The remaining mucosal pellet was solubilized overnight at 37° C. in a 0.1% sodium dodecyl sulfate buffer in 0.1N NaOH followed by determination of protein concentrations using a BCA protein assay (Pierce, Rockford, Ill. 5-HT levels were normalized to protein and data were expressed as mean percent reduction of mucosal 5-HT levels relative to vehicle control SEM (percent 5-HT reduction). All animal studies were carried out with protocols approved by the Institutional Animal Care and Use Committee.
P-values, indicating statistical significance of the data (ANOVA) are provided in the table: * refers to P<0.05, ** refers to P<0.01, *** refers to P<0.005, and refers to P<0.0005.

Where [3] appears, read: read-out: TPH1 Range (TPH1 inhibition IC50).
Where [4] appears, read: TPH1 Range (TPH1 inhibition IC50).

Take `Cc1ccn(-c2cc(-c3ccc(C(C)(C)C)cc3)ccc2[C@@H](Oc2cc(N3CCC4(CC3)CN[C@H](C(=O)O)C4)nc(N)n2)C(F)(F)F)n1` [Example 1p, (S)-8-(2-amino-6-((R)-1-(4′-(tert-butyl)-3-(3-methyl-1H-pyrazol-1-yl)-[1,1′-biphenyl]-4-yl)-2,2,2-trifluoroethoxy)pyrimidin-4-yl)-2,8-diazaspiro[4.5]decane-3-carboxylic acid]: in assay [1] (setting [3]), the IC50 – broadly, the concentration needed to halve the response being measured – is less than 50 nM. Further, the “Efficacy (statistical significance of reduction of mucosal 5-HT concentrations relative to vehicle)” value in assay [2] is on record as “** (** refers to P<0.01)”.
In the same order, the values of `CC(=O)NCCc1ccc(-c2ccc([C@@H](Oc3cc(N4CCC5(CC4)CN[C@H](C(=O)O)C5)nc(N)n3)C(F)(F)F)c(-n3ccc(C)n3)c2)cc1` [Example 1y, (S)-8-(6-((R)-1-(4′-(2-acetamidoethyl)-3-(3-methyl-1H-pyrazol-1-yl)-[1,1′-biphenyl]-4-yl)-2,2,2-trifluoroethoxy)-2-aminopyrimidin-4-yl)-2,8-diazaspiro[4.5]decane-3-carboxylic acid] are less than 50 nM and “** (** refers to P<0.01)”.
On to `COc1ccc([C@@H](Oc2cc(N3CCC4(CC3)CNC(C(=O)O)C4)nc(N)n2)C(F)(F)F)c(-n2ccc(C)n2)c1` (stereo partly drawn) [Example 10j, 8-(2-amino-6-((R)-2,2,2-trifluoro-1-(4-methoxy-2-(3-methyl-1H-pyrazol-1-yl)phenyl)ethoxy)pyrimidin-4-yl)-2,8-diazaspiro[4.5]decane-3-carboxylic acid], for which the half-maximal inhibitory concentration (IC50) in assay [1] (setting [3]) lay in the range of 50 to 300 nM. Besides, the “Efficacy (statistical significance of reduction of mucosal 5-HT concentrations relative to vehicle)” value in assay [2] was “**** (and refers to P<0.0005)”.
Taken in the same sequence, the figures for `Cc1ccn(-c2ccc(Cl)cc2[C@@H](Oc2cc(N3CCC4(CC3)CNC(C(=O)O)C4)nc(N)n2)C(F)(F)F)n1` (stereo partly drawn) [Example 10k, 8-(2-amino-6-((R)-1-(5-chloro-2-(3-methyl-1H-pyrazol-1-yl)phenyl)-2,2,2-trifluoroethoxy)pyrimidin-4-yl)-2,8-diazaspiro[4.5]decane-3-carboxylic acid] were 50 to 300 nM and “* (* refers to P<0.05)”.
As for `Cc1ccc([C@@H](Oc2cc(N3CCC4(CC3)CN[C@H](C(=O)O)C4)nc(N)n2)C(F)(F)F)c(-n2ccc(C)n2)n1` [Example 11, (S)-8-(2-amino-6-((R)-2,2,2-trifluoro-1-(6-methyl-2-(3-methyl-1H-pyrazol-1-yl)pyridin-3-yl)ethoxy)pyrimidin-4-yl)-2,8-diazaspiro[4.5]decane-3-carboxylic acid], in assay [1] (setting [3]), the IC50 was 50 to 300 nM. Moreover, the “Efficacy (statistical significance of reduction of mucosal 5-HT concentrations relative to vehicle)” value in assay [2] is on record as “**** (and refers to P<0.0005)”.
Taken in the same sequence, the figures for `CCCc1ccc([C@@H](Oc2cc(N3CCC4(CC3)CN[C@H](C(=O)O)C4)nc(N)n2)C(F)(F)F)c(-n2ccc(C)n2)c1` [Example 12b, (S)-8-(2-amino-6-((R)-2,2,2-trifluoro-1-(2-(3-methyl-1H-pyrazol-1-yl)-4-propylphenyl)ethoxy)pyrimidin-4-yl)-2,8-diazaspiro[4.5]decane-3-carboxylic acid] were less than 50 nM and “* (* refers to P<0.05)”.
Taken in the same sequence, the figures for `Cc1ccn(-c2cc(C(=O)O)ccc2[C@@H](Oc2cc(N3CCC4(CC3)CN[C@H](C(=O)O)C4)nc(N)n2)C(F)(F)F)n1` [Example 16, (S)-8-(2-amino-6-((R)-1-(4-carboxy-2-(3-methyl-H-pyrazol-1-yl)phenyl)-2,2,2-trifluoroethoxy)pyrimidin-4-yl)-2,8-diazaspiro[4.5]decane-3-carboxylic acid] were 300 to 3000 nM and “** (** refers to P<0.01)”.
In the case of `CCCCc1ccc(-n2ccc(C)n2)c([C@@H](Oc2cc(N3CCC4(CC3)CN[C@H](C(=O)O)C4)nc(N)n2)C(F)(F)F)c1` [Example 22c, (S)-8-(2-amino-6-((R)-1-(5-butyl-2-(3-methyl-1H-pyrazol-1-yl)phenyl)-2,2,2-trifluoroethoxy)pyrimidin-4-yl)-2,8-diazaspiro[4.5]decane-3-carboxylic acid], the IC50 in assay [1] (setting [3]) was less than 50 nM. Besides, the “Efficacy (statistical significance of reduction of mucosal 5-HT concentrations relative to vehicle)” value in assay [2] is recorded as “* (* refers to P<0.05)”.
In the same order, the values of `Nc1nc(O[C@H](c2ccc(Cl)cc2-c2ccc(Cl)s2)C(F)(F)F)cc(N2CCC3(CC2)CN[C@H](C(=O)O)C3)n1` [Example 34s, (S)-8-(2-amino-6-((R)-1-(4-chloro-2-(5-chlorothiophen-2-yl)phenyl)-2,2,2-trifluoroethoxy)pyrimidin-4-yl)-2,8-diazaspiro[4.5]decane-3-carboxylic acid] are 50 to 300 nM and “** (** refers to P<0.01)”.
On to `Nc1nc(O[C@H](c2ccc(Cl)cc2-c2cccc(S(N)(=O)=O)c2)C(F)(F)F)cc(N2CCC3(CC2)CN[C@H](C(=O)O)C3)n1` [Example 34u, (S)-8-(2-amino-6-((R)-1-(5-chloro-3′-sulfamoyl-[1,1′-biphenyl]-2-yl)-2,2,2-trifluoroethoxy)pyrimidin-4-yl)-2,8-diazaspiro[4.5]decane-3-carboxylic acid], for which the concentration for half-maximal inhibition (IC50) in assay [1] (setting [4]) was less than 50 nM. Moreover, the “Efficacy (statistical significance of reduction of mucosal 5-HT concentrations relative to vehicle)” value in assay [2] is “* (* refers to P<0.05)”.
Turning to `Nc1nc(O[C@H](c2ccc(Cl)cc2-c2cccc(O)c2)C(F)(F)F)cc(N2CCC3(CC2)CN[C@H](C(=O)O)C3)n1` [Example 34v, (S)-8-(2-amino-6-((R)-1-(5-chloro-3′-hydroxy-[1,1′-biphenyl]-2-yl)-2,2,2-trifluoroethoxy)pyrimidin-4-yl)-2,8-diazaspiro[4.5]decane-3-carboxylic acid], the IC50 in assay [1] (setting [3]) is less than 50 nM. Besides, in assay [2], the “Efficacy (statistical significance of reduction of mucosal 5-HT concentrations relative to vehicle)” value was “* (* refers to P<0.05)”.
For the compound `CS(=O)(=O)c1cccc(-c2cc(Cl)ccc2[C@@H](Oc2cc(N3CCC4(CC3)CN[C@H](C(=O)O)C4)nc(N)n2)C(F)(F)F)c1` [Example 34w, (S)-8-(2-amino-6-((R)-1-(5-chloro-3′-(methylsulfonyl)-[1,1′-biphenyl]-2-yl)-2,2,2-trifluoroethoxy)pyrimidin-4-yl)-2,8-diazaspiro[4.5]decane-3-carboxylic acid], the concentration for half-maximal inhibition (IC50) in assay [1] (setting [4]) was less than 50 nM. The “Efficacy (statistical significance of reduction of mucosal 5-HT concentrations relative to vehicle)” value in assay [2] is “*** (*** refers to P<0.005)”.
Consider `COc1cccc(-c2ccc(C(Oc3cc(N4CCC5(CC4)CN[C@H](C(=O)O)C5)nc(N)n3)C(F)(F)F)cc2)c1` (stereo partly drawn) [Example 55al, (3S)-8-(2-amino-6-(2,2,2-trifluoro-1-(3′-methoxy-[1,1′-biphenyl]-4-yl)ethoxy)pyrimidin-4-yl)-2,8-diazaspiro[4.5]decane-3-carboxylic acid], for which, in assay [1] (setting [3]), the IC50 lay in the range of 50 to 300 nM. Moreover, the “Efficacy (statistical significance of reduction of mucosal 5-HT concentrations relative to vehicle)” value in assay [2] is “* (* refers to P<0.05)”.
Regarding `Nc1nc(O[C@H](c2ccc(-c3cccc(F)c3)cc2)C(F)(F)F)cc(N2CCC3(CC2)CN[C@H](C(=O)O)C3)n1` [Example 55am, (S)-8-(2-amino-6-((R)-2,2,2-trifluoro-1-(3′-fluoro-[1,1′-biphenyl]-4-yl)ethoxy)pyrimidin-4-yl)-2,8-diazaspiro[4.5]decane-3-carboxylic acid], in assay [1] (setting [3]), the IC50 is 50 to 300 nM. Further, the “Efficacy (statistical significance of reduction of mucosal 5-HT concentrations relative to vehicle)” value in assay [2] is “*** (*** refers to P<0.005)”.
In the same order, the values of `COc1cccc(-c2ccc([C@@H](Oc3cc(N4CCC5(CC4)CN[C@H](C(=O)O)C5)nc(N)n3)C(F)(F)F)cc2)c1` [Example 55an, (S)-8-(2-amino-6-((R)-2,2,2-trifluoro-1-(3′-methoxy-[1,1′-biphenyl]-4-yl)ethoxy)pyrimidin-4-yl)-2,8-diazaspiro[4.5]decane-3-carboxylic acid] are 50 to 300 nM and “*** (*** refers to P<0.005)”.
In the case of `Cc1n[nH]c2cc(-c3ccc([C@@H](Oc4cc(N5CCC6(CC5)CN[C@H](C(=O)O)C6)nc(N)n4)C(F)(F)F)cc3)ccc12` [Example 55az, (S)-8-(2-amino-6-((R)-2,2,2-trifluoro-1-(4-(3-methyl-1H-indazol-6-yl)phenyl)ethoxy)pyrimidin-4-yl)-2,8-diazaspiro[4.5]decane-3-carboxylic acid], the concentration for half-maximal inhibition (IC50) in assay [1] (setting [3]) was less than 50 nM. The “Efficacy (statistical significance of reduction of mucosal 5-HT concentrations relative to vehicle)” value in assay [2] is on record as “*** (*** refers to P<0.005)”.
